Source: patent US11659837B2, “Mixtures comprising an urease inhibitor (UI) and a nitrification inhibitor such as 2-(3,4-dimethyl-1H-pyrazol-1-yl)succinic acid (DMPSA) or 3,4-dimethyl pyrazolium glycolate (DMPG)” (BASF SE, priority 2017, dated 2023)

System: N2O emissions from soils
Assay: Greenhouse experiment: detection of nitrous oxide (N2O) losses from pots
Details: urea
Source text: Detection of Nitrous Oxide Losses:
On application day (DATO), each pot (with/without plants or algae) was set onto a plant saucer designed with an inner compartment for the pot and an outer ring that is filled with water. At time 0, water holding capacity of the soil was set to 60-70% prior to application with/without fertilizer and a.i. Subsequently, a gas sampling chamber was placed over the plant saucer such that the rim fit into the ring filled with water to create a gas-tight chamber and 25 cc air from the chamber were drawn into a syringe and immediately emptied in to a Vacutainer (Labco, 12 ml volume). This equals the Time 0 measurement for each pot. The same procedure was performed with all pots in the experiment. After two hour incubation time, again 25 cc air samples were taken from the gas chambers and emptied into Vacutainers as described above. Plants were then returned to their positions in the climate chamber. The procedure was repeated at precisely the same time of day for up to 19 days.
Samples were analyzed in a Shimadzu 2014 GC equipped with an ECD system.

[1] = DAT 1, NI 0.20, UI 0.01 where present
[2] = DAT 1, NI 0.35, UI 0.01 where present
[3] = DAT 1, NI 0.50, UI 0.01 where present
[4] = DAT 2, NI 0.20, UI 0.01 where present
[5] = DAT 2, NI 0.35, UI 0.01 where present
[6] = DAT 2, NI 0.50, UI 0.01 where present
[7] = DAT 3, NI 0.20, UI 0.01 where present
[8] = DAT 3, NI 0.35, UI 0.01 where present
[9] = DAT 3, NI 0.50, UI 0.01 where present
[10] = DAT 4, NI 0.20, UI 0.01 where present
[11] = DAT 4, NI 0.35, UI 0.01 where present
[12] = DAT 4, NI 0.50, UI 0.01 where present
[13] = DAT 5, NI 0.20, UI 0.01 where present
[14] = DAT 5, NI 0.35, UI 0.01 where present
[15] = DAT 5, NI 0.50, UI 0.01 where present
[16] = DAT 6, NI 0.20, UI 0.01 where present
[17] = DAT 6, NI 0.35, UI 0.01 where present
[18] = DAT 6, NI 0.50, UI 0.01 where present
[19] = DAT 7, NI 0.20, UI 0.01 where present
[20] = DAT 7, NI 0.35, UI 0.01 where present
[21] = DAT 7, NI 0.50, UI 0.01 where present
[22] = DAT 8, NI 0.20, UI 0.01 where present
[23] = DAT 8, NI 0.35, UI 0.01 where present
[24] = DAT 8, NI 0.50, UI 0.01 where present
[25] = DAT 10, NI 0.20, UI 0.01 where present
[26] = DAT 10, NI 0.35, UI 0.01 where present
[27] = DAT 10, NI 0.50, UI 0.01 where present
[28] = DAT 12, NI 0.20, UI 0.01 where present
[29] = DAT 12, NI 0.35, UI 0.01 where present
[30] = DAT 12, NI 0.50, UI 0.01 where present
[31] = DAT 16, NI 0.20, UI 0.01 where present
[32] = DAT 16, NI 0.35, UI 0.01 where present
[33] = DAT 16, NI 0.50, UI 0.01 where present
[34] = DAT 19, NI 0.20, UI 0.01 where present
[35] = DAT 19, NI 0.35, UI 0.01 where present
[36] = DAT 19, NI 0.50, UI 0.01 where present

## CCCCNP(N)(N)=S [NBPT, N-(n-butyl)thiophosphoric acid triamide, reference compound]
DAT 1, no NI, UI 0.01
  Nitrous oxide (N2O) emissions, cumulated values: 9.77 μg N2O—N/m2*h
DAT 2, no NI, UI 0.01
  Nitrous oxide (N2O) emissions, cumulated values: 27.42 μg N2O—N/m2*h
DAT 3, no NI, UI 0.01
  Nitrous oxide (N2O) emissions, cumulated values: 40.07 μg N2O—N/m2*h
DAT 4, no NI, UI 0.01
  Nitrous oxide (N2O) emissions, cumulated values: 53.70 μg N2O—N/m2*h
DAT 5, no NI, UI 0.01
  Nitrous oxide (N2O) emissions, cumulated values: 68.86 μg N2O—N/m2*h
DAT 6, no NI, UI 0.01
  Nitrous oxide (N2O) emissions, cumulated values: 89.16 μg N2O—N/m2*h
DAT 7, no NI, UI 0.01
  Nitrous oxide (N2O) emissions, cumulated values: 109.04 μg N2O—N/m2*h
DAT 8, no NI, UI 0.01
  Nitrous oxide (N2O) emissions, cumulated values: 127.94 μg N2O—N/m2*h
DAT 10, no NI, UI 0.01
  Nitrous oxide (N2O) emissions, cumulated values: 133.95 μg N2O—N/m2*h
DAT 12, no NI, UI 0.01
  Nitrous oxide (N2O) emissions, cumulated values: 140.07 μg N2O—N/m2*h
DAT 16, no NI, UI 0.01
  Nitrous oxide (N2O) emissions, cumulated values: 143.31 μg N2O—N/m2*h
DAT 19, no NI, UI 0.01
  Nitrous oxide (N2O) emissions, cumulated values: 146.30 μg N2O—N/m2*h
No NI, UI 0.01
  Nitrous oxide (N2O) emissions, % appl. N: 0.628 % appl. N

## Cc1cn(C(CC(=O)O)C(=O)O)nc1C.N.N (stereo not shown) [DMPSA-di-NH4]
[1]
  Nitrous oxide (N2O) emissions, cumulated values: 5.71 μg N2O—N/m2*h
[2]
  Nitrous oxide (N2O) emissions, cumulated values: 6.74 μg N2O—N/m2*h
[3]
  Nitrous oxide (N2O) emissions, cumulated values: 7.89 μg N2O—N/m2*h
[4]
  Nitrous oxide (N2O) emissions, cumulated values: 17.84 μg N2O—N/m2*h
[5]
  Nitrous oxide (N2O) emissions, cumulated values: 22.08 μg N2O—N/m2*h
[6]
  Nitrous oxide (N2O) emissions, cumulated values: 16.36 μg N2O—N/m2*h
[7]
  Nitrous oxide (N2O) emissions, cumulated values: 28.36 μg N2O—N/m2*h
[8]
  Nitrous oxide (N2O) emissions, cumulated values: 30.26 μg N2O—N/m2*h
[9]
  Nitrous oxide (N2O) emissions, cumulated values: 23.64 μg N2O—N/m2*h
[10]
  Nitrous oxide (N2O) emissions, cumulated values: 40.61 μg N2O—N/m2*h
[11]
  Nitrous oxide (N2O) emissions, cumulated values: 39.25 μg N2O—N/m2*h
[12]
  Nitrous oxide (N2O) emissions, cumulated values: 31.59 μg N2O—N/m2*h
[13]
  Nitrous oxide (N2O) emissions, cumulated values: 51.02 μg N2O—N/m2*h
[14]
  Nitrous oxide (N2O) emissions, cumulated values: 47.97 μg N2O—N/m2*h
[15]
  Nitrous oxide (N2O) emissions, cumulated values: 38.95 μg N2O—N/m2*h
[16]
  Nitrous oxide (N2O) emissions, cumulated values: 57.34 μg N2O—N/m2*h
[17]
  Nitrous oxide (N2O) emissions, cumulated values: 54.68 μg N2O—N/m2*h
[18]
  Nitrous oxide (N2O) emissions, cumulated values: 45.83 μg N2O—N/m2*h
[19]
  Nitrous oxide (N2O) emissions, cumulated values: 66.12 μg N2O—N/m2*h
[20]
  Nitrous oxide (N2O) emissions, cumulated values: 60.89 μg N2O—N/m2*h
[21]
  Nitrous oxide (N2O) emissions, cumulated values: 53.03 μg N2O—N/m2*h
[22]
  Nitrous oxide (N2O) emissions, cumulated values: 76.79 μg N2O—N/m2*h
[23]
  Nitrous oxide (N2O) emissions, cumulated values: 66.75 μg N2O—N/m2*h
[24]
  Nitrous oxide (N2O) emissions, cumulated values: 62.02 μg N2O—N/m2*h
[25]
  Nitrous oxide (N2O) emissions, cumulated values: 86.54 μg N2O—N/m2*h
[26]
  Nitrous oxide (N2O) emissions, cumulated values: 72.23 μg N2O—N/m2*h
[27]
  Nitrous oxide (N2O) emissions, cumulated values: 67.48 μg N2O—N/m2*h
[28]
  Nitrous oxide (N2O) emissions, cumulated values: 92.81 μg N2O—N/m2*h
[29]
  Nitrous oxide (N2O) emissions, cumulated values: 76.32 μg N2O—N/m2*h
[30]
  Nitrous oxide (N2O) emissions, cumulated values: 72.35 μg N2O—N/m2*h
[31]
  Nitrous oxide (N2O) emissions, cumulated values: 93.10 μg N2O—N/m2*h
[32]
  Nitrous oxide (N2O) emissions, cumulated values: 78.21 μg N2O—N/m2*h
[33]
  Nitrous oxide (N2O) emissions, cumulated values: 74.66 μg N2O—N/m2*h
[34]
  Nitrous oxide (N2O) emissions, cumulated values: 93.49 μg N2O—N/m2*h
[35]
  Nitrous oxide (N2O) emissions, cumulated values: 78.47 μg N2O—N/m2*h
[36]
  Nitrous oxide (N2O) emissions, cumulated values: 75.03 μg N2O—N/m2*h
NI 0.20, UI 0.01 where present
  Nitrous oxide (N2O) emissions, % appl. N: 0.401 % appl. N
NI 0.35, UI 0.01 where present
  Nitrous oxide (N2O) emissions, % appl. N: 0.337 % appl. N
NI 0.50, UI 0.01 where present
  Nitrous oxide (N2O) emissions, % appl. N: 0.322 % appl. N

## Cc1cn(C(CC(=O)[O-])C(=O)[O-])nc1C.[K+].[K+] (stereo not shown) [DMPSA-K2]
[1]
  Nitrous oxide (N2O) emissions, cumulated values: 8.97 μg N2O—N/m2*h
[2]
  Nitrous oxide (N2O) emissions, cumulated values: 7.74 μg N2O—N/m2*h
[3]
  Nitrous oxide (N2O) emissions, cumulated values: 7.62 μg N2O—N/m2*h
[4]
  Nitrous oxide (N2O) emissions, cumulated values: 19.30 μg N2O—N/m2*h
[5]
  Nitrous oxide (N2O) emissions, cumulated values: 18.94 μg N2O—N/m2*h
[6]
  Nitrous oxide (N2O) emissions, cumulated values: 20.18 μg N2O—N/m2*h
[7]
  Nitrous oxide (N2O) emissions, cumulated values: 29.75 μg N2O—N/m2*h
[8]
  Nitrous oxide (N2O) emissions, cumulated values: 29.26 μg N2O—N/m2*h
[9]
  Nitrous oxide (N2O) emissions, cumulated values: 30.31 μg N2O—N/m2*h
[10]
  Nitrous oxide (N2O) emissions, cumulated values: 37.16 μg N2O—N/m2*h
[11]
  Nitrous oxide (N2O) emissions, cumulated values: 37.09 μg N2O—N/m2*h
[12]
  Nitrous oxide (N2O) emissions, cumulated values: 37.69 μg N2O—N/m2*h
[13]
  Nitrous oxide (N2O) emissions, cumulated values: 45.99 μg N2O—N/m2*h
[14]
  Nitrous oxide (N2O) emissions, cumulated values: 46.55 μg N2O—N/m2*h
[15]
  Nitrous oxide (N2O) emissions, cumulated values: 46.97 μg N2O—N/m2*h
[16]
  Nitrous oxide (N2O) emissions, cumulated values: 52.71 μg N2O—N/m2*h
[17]
  Nitrous oxide (N2O) emissions, cumulated values: 52.67 μg N2O—N/m2*h
[18]
  Nitrous oxide (N2O) emissions, cumulated values: 52.44 μg N2O—N/m2*h
[19]
  Nitrous oxide (N2O) emissions, cumulated values: 60.65 μg N2O—N/m2*h
[20]
  Nitrous oxide (N2O) emissions, cumulated values: 60.12 μg N2O—N/m2*h
[21]
  Nitrous oxide (N2O) emissions, cumulated values: 62.57 μg N2O—N/m2*h
[22]
  Nitrous oxide (N2O) emissions, cumulated values: 68.52 μg N2O—N/m2*h
[23]
  Nitrous oxide (N2O) emissions, cumulated values: 70.52 μg N2O—N/m2*h
[24]
  Nitrous oxide (N2O) emissions, cumulated values: 72.03 μg N2O—N/m2*h
[25]
  Nitrous oxide (N2O) emissions, cumulated values: 77.59 μg N2O—N/m2*h
[26]
  Nitrous oxide (N2O) emissions, cumulated values: 77.77 μg N2O—N/m2*h
[27]
  Nitrous oxide (N2O) emissions, cumulated values: 79.00 μg N2O—N/m2*h
[28]
  Nitrous oxide (N2O) emissions, cumulated values: 85.15 μg N2O—N/m2*h
[29]
  Nitrous oxide (N2O) emissions, cumulated values: 81.35 μg N2O—N/m2*h
[30]
  Nitrous oxide (N2O) emissions, cumulated values: 82.43 μg N2O—N/m2*h
[31]
  Nitrous oxide (N2O) emissions, cumulated values: 87.97 μg N2O—N/m2*h
[32]
  Nitrous oxide (N2O) emissions, cumulated values: 84.12 μg N2O—N/m2*h
[33]
  Nitrous oxide (N2O) emissions, cumulated values: 84.05 μg N2O—N/m2*h
[34]
  Nitrous oxide (N2O) emissions, cumulated values: 88.83 μg N2O—N/m2*h
[35]
  Nitrous oxide (N2O) emissions, cumulated values: 84.94 μg N2O—N/m2*h
[36]
  Nitrous oxide (N2O) emissions, cumulated values: 84.28 μg N2O—N/m2*h
NI 0.20, UI 0.01 where present
  Nitrous oxide (N2O) emissions, % appl. N: 0.381 % appl. N
NI 0.35, UI 0.01 where present
  Nitrous oxide (N2O) emissions, % appl. N: 0.364 % appl. N
NI 0.50, UI 0.01 where present
  Nitrous oxide (N2O) emissions, % appl. N: 0.361 % appl. N
